Experimental data reported in paper PMC7527212 (Science Advances, 2020).

What was measured:
[1] = test system: F143W mutant of Bcl-xL; assay: ITC measurement of Bak BH3 peptide binding, F143W mutant; parameters: species or system human; details: ratio of KA by ITC, F143W vs WT Bcl-xL
[2] = test system: WT Bcl-xL; assay: NMR titration / chemical shift perturbation; assay type: binding, human

| affinity increase, F143W mutant versus WT Bcl-xL [1] | Substance | CSP in the cryptic site ([2]; NMR, 160 μM peptide added to 100 μM WT Bcl-xL, 10 mM NaPi pH 6.8, 2 mM DTT, 298 K) | binding to WT Bcl-xL (binding mode) ([2]; concluded from NMR CSPs, 160 μM peptide, 100 μM WT Bcl-xL) |
| --- | --- | --- | --- |
| twofold | NH3-GQVGRQLAIIGDDINR-COOH [Bak BH3 peptide] |  |  |
|  | NH3-YPLGSPLWRLHS-COOH [P1] | clear CSP in the cryptic site | binds to the WT Bcl-xL with the expected binding mode |
